Laboratory results as given in patent US11179329B2, “Therapeutical use of H3-ligands” (BIOPROJET Pharma, priority 2017, dated 2021).
Like-named read-outs stand apart in the source and are kept apart here.

Assays:
[1] = Comparative pharmacokinetic data in mice (plasma and brain); conditions: male swiss mice; for AUC brain / AUC plasma: normalized at 1 mg of base/kg, 24 hours sampling
Description: (§1) Compounds were administered to male swiss mice at a dose close to 1 mg of base/kg.

[2] = mouse, in vivo
Description: as §1

[3] = PK results in human, Compound (A) given orally once-a-day; format: in vivo; conditions: for Cmax: po, 60 ug
Description: Steady state seems to be attained after 7 to 8 days of treatment for the 60 μg dose.

[4] = as above; format: in vivo; conditions: for Cmax: serum, po, 90 ug
H3 receptor = assay: H3R occupancy in brain by PET imaging with [11C]GSK189254 in healthy volunteers; format: in vivo; conditions: human
Description: The process of imaging requires the injection of a positron-emitting radiotracer that binds to the receptor followed by the measurement of this binding using the PET scanner.
This method allows to predict the therapeutic dose of a new H3 receptor inverse agonist/antagonist in two steps: 1/the degree of receptor occupancy associated with the dose ensuring therapeutic efficacy of a known drug A is determined, 2/the dose of the new drug B ensuring the same receptor occupancy as A at therapeutic dose is evaluated.
This strategy was applied by comparing H3R occupancy in healthy volunteers receiving pitolisant, an approved and marketed H3R inverse agonist, at its oral maximal therapeutic dose of 40 mg to occupancy by Compound (A) given at several dosages.

vigilance = assay: Activity on vigilance in human; format: in vivo
histamine H3 receptor = histamine H3 receptor (Homo sapiens, UniProt Q9Y5N1); conditions: cited from earlier work
Chain of histamine H3 receptor (Q9Y5N1 whole entry, species assumed): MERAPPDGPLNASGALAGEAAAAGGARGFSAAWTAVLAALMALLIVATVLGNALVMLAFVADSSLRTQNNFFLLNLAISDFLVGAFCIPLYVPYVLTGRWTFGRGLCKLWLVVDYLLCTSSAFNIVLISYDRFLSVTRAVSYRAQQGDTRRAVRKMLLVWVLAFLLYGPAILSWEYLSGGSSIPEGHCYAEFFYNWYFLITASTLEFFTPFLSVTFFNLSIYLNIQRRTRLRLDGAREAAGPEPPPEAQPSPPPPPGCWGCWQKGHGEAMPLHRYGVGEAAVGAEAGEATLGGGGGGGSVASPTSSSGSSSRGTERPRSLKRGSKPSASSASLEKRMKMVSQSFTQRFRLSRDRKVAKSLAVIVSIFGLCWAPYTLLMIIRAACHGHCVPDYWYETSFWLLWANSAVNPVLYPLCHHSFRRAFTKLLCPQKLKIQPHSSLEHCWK

[5] = in vivo; cited from earlier work
[6] = Solid-state stability / hygroscopicity of the dihydrochloride forms; format: physicochemical
Description: The tetrahydrate of compound (A) is stable for relative humidity ranging from at least 30% to 70% which is an improved property as compared to the hygroscopic nature of the previously described dihydrochloride. The tetrahydrate of compound (A) is also stable for temperatures ranging from 20° C. to 40° C.

Compound | ratio of plasma AUC over the AUC of the dihydrochloride tetrahydrate [1] | AUC brain [1] [ng·h/g] | AUC plasma [1] [ng·h/mL] | ratio of plasma AUC over the AUC of the dihydrochloride tetrahydrate [2] | further results
(3S)-4-{4-[3-(3-methylpiperidin-1-yl)propoxy]phenyl}pyridine 1-oxide 5-sulfosalicylate [Example 18] | 0.6 | 513 | 400 |  | 
C[C@H]1CCCN(CCCOc2ccc(-c3cc[n+]([O-])cc3)cc2)C1.O=C(O)c1cc2ccccc2c(Cc2c(O)c(C(=O)O)cc3ccccc23)c1O [Example 8, (3S)-4-{4-[3-(3-methylpiperidin-1-yl)propoxy]phenyl}pyridine 1-oxide pamoate] | 0.9 | 952 | 587 |  | 
(3S)-4-{4-[3-(3-methylpiperidin-1-yl)propoxy]phenyl}pyridine 1-oxide orotate dihydrate [Example 17] | 0.6 | 529 | 389 |  | 
C[C@H]1CCCN(CCCOc2ccc(-c3cc[n+]([O-])cc3)cc2)C1.O=C(O)/C=C/C(=O)O [Example 9, (3S)-4-{4-[3-(3-methylpiperidin-1-yl)propoxy]phenyl}pyridine 1-oxide fumarate] | 0.7 | 882 | 448 |  | 
C[C@H]1CCCN(CCCOc2ccc(-c3cc[n+]([O-])cc3)cc2)C1.C[C@H]1CCCN(CCCOc2ccc(-c3cc[n+]([O-])cc3)cc2)C1.Cc1ccc(S(=O)(=O)O)cc1.Cc1ccc(S(=O)(=O)O)cc1.O.O.O.O.O [Example 10, (3S)-4-{4-[3-(3-methylpiperidin-1-yl)propoxy]phenyl}pyridine 1-oxide para-toluenesulfonate sestertihydrate (2.5)] |  |  |  | 1.2 | 
CCO.C[C@H]1CCCN(CCCOc2ccc(-c3cc[n+]([O-])cc3)cc2)C1.C[C@H]1CCCN(CCCOc2ccc(-c3cc[n+]([O-])cc3)cc2)C1.O.O.O=S(=O)(O)c1cccc2c(S(=O)(=O)O)cccc12.O=S(=O)(O)c1cccc2c(S(=O)(=O)O)cccc12 [Example 11, (3S)-4-{4-[3-(3-methylpiperidin-1-yl)propoxy]phenyl}pyridine 1-oxide 1,5-naphtalenedisulfonate monohydrate hemiethanolate] |  |  |  | 0.7 | 
C[C@H]1CCCN(CCCOc2ccc(-c3cc[n+]([O-])cc3)cc2)C1 [Compound (A), (3S)-4-{4-[3-(3-methylpiperidin-1-yl)propoxy]phenyl}pyridine 1-oxide] |  |  |  |  | dose proportionality of serum exposure (mean Cmax and AUC0-24 h dose normalized ratios) ([3]; human volunteers, between 60 and 90 μg o.d., Day 1 and Day 10): tendency to increase more than dose-proportionally; decrease of total body clearance (Clss/F) after repeated dosing ([3]; human, 60 μg): 65%; higher AUC0-24 h after repeated dosing (Day 10) than after a single dose (Day 1) ([3]; human, 60 μg): 73%; higher Cmax after repeated dosing (Day 10) than after a single dose (Day 1) ([3]; human, 60 μg): 42%; Cmax ([3]; human, serum, human, oral 60 μg once-a-day, after repeated dose): 0.172 ng/mL; Cmax ([3]; human, serum, human, oral 60 μg, after a single dose): 0.121 ng/mL; half-life ([3]; serum, oral, human, determined at Day 10 after multiple administrations, read-out: mean t1/2 (converted)): ~33 h; decrease of total body clearance (Clss/F) after repeated dosing ([4]; 90 μg): 74%; higher AUC0-24 h after repeated administration (% accumulation) ([4]; 90 μg): 113%; higher Cmax after repeated administration (% accumulation) ([4]; 90 μg): 101%; Cmax ([4]; oral 90 μg once-a-day, after repeated dose): 0.344 ng/mL; Cmax ([4]; oral 90 μg, after a single dose): 0.171 ng/mL; Percent H3R occupancy ± SD At through (24 h) (H3 receptor; 30 μg once): −46.50 ± 12.71%; potency relative to the marketed drug pitolisant (H3 receptor; doses of equal H3R occupancy): 1,000 fold; activity on vigilance (vigilance; 30 μg daily, when going to bed at night): delay in falling asleep; effect of repeated treatment on sleep (vigilance; 90 μg once-a-day for 10 days): some insomnia
C[C@H]1CCCN(CCCOc2ccc(-c3cc[n+]([O-])cc3)cc2)C1.O=S(=O)(O)O [Example 15, (3S)-4-{4-[3-(3-methylpiperidin-1-yl)propoxy]phenyl}pyridine 1-oxide sulfate] | 0.8 | 639 | 466 |  | 
(3S)-4-{4-[3-(3-methylpiperidin-1-yl)propoxy]phenyl}pyridine 1-oxide sesquiglycolate monohydrate [Example 21] | 0.6 | 484 | 348 |  | 
C[C@H]1CCCN(CCCOc2ccc(-c3cc[n+]([O-])cc3)cc2)C1.O=C(O)C(=O)O [Example 6, (3S)-4-{4-[3-(3-methylpiperidin-1-yl)propoxy]phenyl}pyridine 1-oxide oxalate] | 0.9 | 923 | 562 |  | 
Br.Br.C[C@H]1CCCN(CCCOc2ccc(-c3cc[n+]([O-])cc3)cc2)C1 [Example 16, (3S)-4-{4-[3-(3-methylpiperidin-1-yl)propoxy]phenyl}pyridine 1-oxide dibromhydrate] |  |  |  | 0.6 | 
C[C@H]1CCCN(CCCOc2ccc(-c3cc[n+]([O-])cc3)cc2)C1.O=P(O)(O)O [Example 12, (3S)-4-{4-[3-(3-methylpiperidin-1-yl)propoxy]phenyl}pyridine 1-oxide phosphate] | 0.6 | 630 | 350 |  | 
C[C@H]1CCCN(CCCOc2ccc(-c3cc[n+]([O-])cc3)cc2)C1 [Example 5, (3S)-4-{4-[3-(3-methylpiperidin-1-yl)propoxy]phenyl}pyridine 1-oxide base] | 1.2 | 860 | 769 |  | 
Br.C[C@H]1CCCN(CCCOc2ccc(-c3cc[n+]([O-])cc3)cc2)C1 [Example 13, (3S)-4-{4-[3-(3-methylpiperidin-1-yl)propoxy]phenyl}pyridine 1-oxide bromhydrate] |  |  |  | 0.6 | 
C[C@H]1CCCN(CCCOc2ccc(-c3cc[n+]([O-])cc3)cc2)C1.O.O.O.O=C(O)C(O)C(O)C(=O)O [Example 7, (3S)-4-{4-[3-(3-methylpiperidin-1-yl)propoxy]phenyl}pyridine 1-oxide L-tartrate trihydrate] | 0.7 | 814 | 447 |  | 
C[C@H]1CCCN(CCCOc2ccc(-c3cc[n+]([O-])cc3)cc2)C1.O=C(O)c1cc2ccccc2cc1O [Example 20, (3S)-4-{4-[3-(3-methylpiperidin-1-yl)propoxy]phenyl}pyridine 1-oxide 3-hydroxy-2-naphtoate] |  |  |  | 0.6 | 
C[C@H]1CCCN(CCCOc2ccc(-c3cc[n+]([O-])cc3)cc2)C1.O.O=C(O)c1ccc2ccccc2c1O [Example 19, (3S)-4-{4-[3-(3-methylpiperidin-1-yl)propoxy]phenyl}pyridine 1-oxide 1-hydroxy-2-naphtoate monohydrate] |  |  |  | 0.6 | 
[11CH3]NC(=O)c1ccc(Oc2ccc3c(c2)CCN(C2CCC2)CC3)nc1 [[^11C]GSK189254] |  |  |  |  | affinity for the histamine H3 receptor (histamine H3 receptor): high affinity; brain penetration [5]: good brain penetration; terminal half-life [5]: 1.6 ± 0.4 h
C[C@H]1CCCN(CCCOc2ccc(-c3cc[n+]([O-])cc3)cc2)C1.Cl.Cl.O.O.O.O [Example 4, (3S)-4-{4-[3-(3-methylpiperidin-1-yl)propoxy]phenyl}pyridine 1-oxide dihydrochloride tetrahydrate] | 1.0 | 1040 | 619 |  | stability (general) [6]: very stable; stability against relative humidity ([6]; relative humidity ranging from at least 30% to 70%): stable; stability against temperature ([6]; temperatures ranging from 20° C. to 40° C.): stable
